Key:
[1] = molecular target: T1, Prostaglandin G/H synthase 1 (Ovis aries, UniProt P05979)
T1 sequence (P05979 whole entry): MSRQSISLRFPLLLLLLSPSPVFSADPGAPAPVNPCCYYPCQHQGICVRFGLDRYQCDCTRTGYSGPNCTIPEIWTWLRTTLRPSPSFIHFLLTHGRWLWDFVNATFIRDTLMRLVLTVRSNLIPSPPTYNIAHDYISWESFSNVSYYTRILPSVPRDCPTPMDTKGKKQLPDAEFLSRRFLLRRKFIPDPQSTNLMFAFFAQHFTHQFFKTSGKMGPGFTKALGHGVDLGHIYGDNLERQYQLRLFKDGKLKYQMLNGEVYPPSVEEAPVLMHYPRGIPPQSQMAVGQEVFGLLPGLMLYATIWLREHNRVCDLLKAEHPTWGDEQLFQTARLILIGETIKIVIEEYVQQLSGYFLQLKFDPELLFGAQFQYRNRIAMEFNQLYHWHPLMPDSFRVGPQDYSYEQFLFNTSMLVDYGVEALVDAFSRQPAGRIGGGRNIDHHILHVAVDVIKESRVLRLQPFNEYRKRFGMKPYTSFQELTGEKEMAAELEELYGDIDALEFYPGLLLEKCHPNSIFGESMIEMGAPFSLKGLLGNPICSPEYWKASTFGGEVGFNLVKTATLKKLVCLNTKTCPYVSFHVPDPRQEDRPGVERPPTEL
Description: Inhibition of ovine COX1 by enzyme immunoassay

Serum = assay: Induction of nitric oxide release in rat serum containing phosphate buffer at pH 7.4; assay type: functional; set-up: concentration or dose not given beside the values
Rattus norvegicus [2] = species: Rattus norvegicus; assay: animal or person; assay type: functional; settings: 3 h
[3] = Induction of nitric oxide release in phosphate buffer at pH 7.4; assay type: physicochemical
Rattus norvegicus [4] = assay: Antiinflammatory activity in po dosed rat assessed as inhibition of carrageenan-induced paw edema after 3 hrs; assay type: functional
[5] = Selectivity ratio of IC50 for ovine COX1 to IC50 for human COX2

Structure (SMILES)	IC50 [1] [µM]	Activity (Serum) [%]	inhibition in vivo at 113.8 µmol/kg (Rattus norvegicus [2]) [%]	Activity [3] [%]	ED50 (Rattus norvegicus [4]) [µmol/kg]	Ratio IC50 [5]
CC(=O)OCO/N=[N+](\[O-])N(C)CCOC(=O)Cc1ccc(-c2cc(C(F)(F)F)nn2-c2ccc(S(N)(=O)=O)cc2)cc1	35.4	74.6	55.8	7.2		
[O-]/[N+](=N\O)N1CCC[C@H]1CO		85		84.5		
NS(=O)(=O)c1ccc(-n2nc(C(F)(F)F)cc2-c2ccc(CC(=O)O)cc2)cc1	8.1		50		114	
CC(=O)OCO/N=[N+](\[O-])N(C)CCOC(=O)Cc1ccc(-c2cc(C(F)(F)F)nn2-c2ccc(S(C)(=O)=O)cc2)cc1	8.2	72.2		6.9		
CN(CCO)/[N+]([O-])=N\O		84.8		84.5		
CS(=O)(=O)c1ccc(-n2nc(C(F)(F)F)cc2-c2ccc(CC(=O)O)cc2)cc1	65.2				216	
CC(=O)OCO/N=[N+](\[O-])N1CCC[C@H]1COC(=O)Cc1ccc(-c2cc(C(F)(F)F)nn2-c2ccc(S(C)(=O)=O)cc2)cc1	11.8	62.9		5		
CC(=O)Oc1ccccc1C(=O)O [ASPIRIN]					714	
CC(=O)OCO/N=[N+](\[O-])N1CCC[C@H]1COC(=O)Cc1ccc(-c2cc(C(F)(F)F)nn2-c2ccc(S(N)(=O)=O)cc2)cc1	13.4	59.6	46.5	5.4		14.4

Source: ChEMBL document CHEMBL1155245, “Diazen-1-ium-1,2-diolated nitric oxide donor ester prodrugs of 5-(4-carboxymethylphenyl)-1-(4-methanesulfonylphenyl)-3-trifluoromethyl-1H-pyrazole and its aminosulfonyl analog: Synthesis, biological evaluation and nitric oxide release studies” (Bioorg Med Chem, 2009)
